Test results taken from the supplement of paper PMC10331698.
± gives the standard deviation of the averaged measurements.

Legend:
Assay in all cases: level (log10 ratio to DMSO vehicle control); higher = higher biomarker level / cell amount than vehicle control
Perfluoropentanoic acid = compound: O=C(O)C(F)(F)C(F)(F)C(F)(F)C(F)(F)F [Perfluoropentanoic acid]; details: in DMSO
Protocol: (§1)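 BioMAP Diversity Plus panel of 12 human primary cell co-culture systems (3C, 4H, LPS, SAg, BT, BF4T, BE3C, CASM3C, HDF3CGF, KF3CT, MyoF, Mphg). Compounds were added 1 h before stimulation and left for 24 h (MyoF 48 h; BT 72 h for soluble read-outs or 6 d for IgG). Biomarkers were read by ELISA, cytotoxicity by SRB, PBMC viability and proliferation by Alamar Blue. Each well value was divided by the mean of 8 DMSO control wells on the same plate and log10 transformed; duplicate blinded samples were tested at 4 concentrations.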

[1] = compound: OCCCC(F)(F)C(F)(F)C(F)(F)C(F)(F)C(F)(F)C(F)(F)C(F)(F)F [7:3 Fluorotelomer alcohol]; details: 6700 nM; in DMSO
Protocol: as §1

[2] = compound: O=C(O)C(F)(F)C(F)(F)C(F)(F)C(F)(F)C(F)(F)C(F)(F)C(F)(F)C(F)F [9-H-Perfluorononanoic acid]; details: in DMSO
Protocol: as §1

Perfluoropropanoic acid = compound: O=C(O)C(F)(F)C(F)(F)F [Perfluoropropanoic acid]; details: in DMSO
Protocol: as §1

[3] = compound: O=C(O)C(F)(F)C(F)(F)C(F)(F)OC(F)(C(F)(F)F)C(F)(F)F [Perfluoro-4-isopropoxybutanoic acid]; details: in DMSO
Protocol: as §1

[4] = compound: O=C(O)C(F)(F)C(F)(F)C(F)F [4H-Perfluorobutanoic acid]; details: in DMSO
Protocol: as §1

[5] = compound: OCC(F)(F)OC(F)(F)C(F)(F)OC(F)(F)CO [1H,1H,8H,8H-Perfluoro-3,6-dioxaoctane-1,8-diol]; details: in DMSO
Protocol: as §1

Row | Test System | level (log10) (Perfluoropentanoic acid; 6700 nM) | level (log10) (Perfluoropentanoic acid; 20000 nM) | level (log10) (Perfluoropentanoic acid; 60000 nM) | level (log10) [1] | level (log10) ([2]; 6700 nM) | level (log10) ([2]; 20000 nM) | level (log10) ([2]; 60000 nM) | level (log10) (Perfluoropropanoic acid; 6700 nM) | level (log10) (Perfluoropropanoic acid; 20000 nM) | level (log10) (Perfluoropropanoic acid; 60000 nM) | level (log10) ([3]; 6700 nM) | level (log10) ([3]; 20000 nM) | level (log10) ([3]; 60000 nM) | level (log10) ([4]; 6700 nM) | level (log10) ([4]; 20000 nM) | level (log10) ([4]; 60000 nM) | level (log10) ([5]; 6700 nM) | level (log10) ([5]; 20000 nM) | level (log10) ([5]; 60000 nM)
1 | KF3CT:CXCL9/MIG | -0.002 ± 0.0057 | -0.0055 ± 0.0021 | 0.0085 ± 0.013 | 0.0015 ± 0.005 | -0.008 ± 0.0042 | -0.009 ± 0.0028 | -0.0045 ± 0.00071 | -0.007 ± 0.0071 | -0.005 ± 0.017 | -0.0095 ± 0.021 | 0.0025 ± 0.011 | 0.0105 ± 0.00071 | 0.0155 ± 0.023 | -0.004 ± 0.016 | -0.011 ± 0.011 | -0.007 ± 0.0071 | 0.001 ± 0.011 | 0.006 ± 0.0085 | 0.0015 ± 0.0092
2 | 3C:CD141/Thrombomodulin | 0.024 ± 0.021 | 0.0345 ± 0.005 | 0.0685 ± 0.042 | -0.032 | 0.012 ± 0.0085 | -0.003 ± 0.0085 | -0.0365 ± 0.0078 | -0.016 ± 0.031 | 0.011 ± 0.021 | 0.0155 ± 0.0035 | -0.019 ± 0.0014 | -0.0365 ± 0.019 | -0.015 ± 0.0028 | -0.0285 ± 0.0078 | -0.008 ± 0.013 | 0.0035 ± 0.0035 | -0.003 ± 0.013 | -0.0075 ± 0.015 | 0.01 ± 0.0085
3 | lMphg:CCL3/MIP-1alpha | 0.008 ± 0.059 | -0.006 ± 0.055 | 0.006 ± 0.055 | -0.0155 ± 0.019 | -0.005 | -0.0065 ± 0.0021 | 0.0195 ± 0.036 | -0.0105 ± 0.023 | -0.0235 ± 0.0021 | 0.0115 ± 0.013 | -0.035 ± 0.0085 | -0.0355 ± 0.029 | -0.005 ± 0.037 | -0.0075 ± 0.037 | 0.004 ± 0.016 | 0.0235 ± 0.011 | -0.004 ± 0.04 | -0.0025 ± 0.022 | 0.0215 ± 0.029
4 | CASM3C:CD141/Thrombomodulin | -0.0065 ± 0.016 | -0.0135 ± 0.035 | 0.0105 ± 0.005 | 0 ± 0.0014 | -0.003 ± 0.0099 | -0.0075 ± 0.0035 | 0.0075 ± 0.0021 | -0.05 ± 0.031 | 0.024 ± 0.0099 | 0.0245 ± 0.066 | 0 ± 0.018 | -0.005 ± 0.02 | 0.0135 ± 0.029 | -0.0005 ± 0.016 | 0 ± 0.081 | -0.0145 ± 0.028 | -0.0045 ± 0.0021 | 0.0035 ± 0.005 | 0.001 ± 0.016
5 | lMphg:SRB | -0.0125 ± 0.0035 | -0.0065 ± 0.0092 | 0.01 ± 0.018 | -0.0085 ± 0.0064 | 0.0005 ± 0.00071 | 0.002 ± 0.0057 | -0.0115 ± 0.005 | -0.0065 ± 0.005 | -0.0125 ± 0.0021 | -0.011 ± 0.016 | -0.003 ± 0.0071 | -0.0035 ± 0.005 | -0.009 ± 0.023 | -0.0035 ± 0.019 | -0.005 ± 0.0057 | 0.0025 ± 0.0021 | -0.028 ± 0.021 | 0.015 | -0.0375 ± 0.0021
6 | CASM3C:CD106/VCAM-1 | -0.0225 ± 0.0078 | -0.0565 ± 0.029 | -0.009 ± 0.0057 | -0.012 ± 0.016 | -0.0215 ± 0.012 | -0.019 ± 0.02 | -0.0315 ± 0.005 | 0.027 ± 0.025 | 0.0445 ± 0.052 | 0.0445 ± 0.0078 | -0.003 ± 0.0071 | -0.016 ± 0.016 | -0.007 ± 0.021 | 0.031 ± 0.057 | 0.041 ± 0.014 | 0.04 ± 0.0085 | 0.0125 ± 0.0078 | -0.005 ± 0.0028 | 0.0015 ± 0.0035
7 | HDF3CGF:PAI-I | -0.0055 ± 0.026 | -0.015 ± 0.013 | 0.007 ± 0.0014 | 0.0175 ± 0.029 | -0.0135 ± 0.0092 | 0.004 ± 0.0028 | 0.0175 ± 0.023 | -0.07 ± 0.1 | -0.005 ± 0.12 | -0.002 ± 0.04 | -0.001 ± 0.033 | -0.0115 ± 0.025 | -0.0165 ± 0.013 | -0.021 ± 0.12 | 0.0115 ± 0.1 | 0.03 ± 0.069 | -0.013 ± 0.023 | -0.017 ± 0.017 | -0.0205 ± 0.0092
8 | CASM3C:Proliferation | 0.0185 ± 0.021 | -0.0305 ± 0.067 | 0.0215 ± 0.052 | 0.052 ± 0.0057 | 0.012 ± 0.011 | -0.016 ± 0.013 | 0.028 ± 0.088 | 0.0065 ± 0.0035 | -0.0355 ± 0.063 | 0.017 ± 0.033 | -0.018 ± 0.0099 | -0.037 ± 0.025 | -0.0085 ± 0.057 | 0.0045 ± 0.011 | -0.0185 ± 0.066 | 0.0045 ± 0.04 | -0.0225 ± 0.0021 | -0.0045 ± 0.028 | 0.0065 ± 0.026
9 | HDF3CGF:SRB | 0.012 ± 0.011 | 0.01 ± 0.018 | 0.0125 ± 0.03 | -0.014 ± 0.027 | 0.022 ± 0.023 | 0.0825 ± 0.03 | 0.148 ± 0.034 | -0.003 ± 0.0085 | -0.0175 ± 0.011 | -0.0335 ± 0.032 | -0.0125 ± 0.025 | 0.0115 ± 0.037 | -0.0055 ± 0.015 | -0.0125 ± 0.06 | -0.0095 ± 0.0035 | 0.0155 ± 0.022 | -0.031 ± 0.0057 | 0.0405 ± 0.033 | -0.0505 ± 0.016
10 | HDF3CGF:Proliferation 72hr | 0.002 ± 0.041 | 0.0505 ± 0.11 | 0.022 ± 0.03 | -0.49 ± 0.0042 | 0.062 ± 0.018 | 0.0905 ± 0.049 | -0.0045 ± 0.098 | 0.006 ± 0.0042 | -0.01 ± 0.045 | 0.0325 ± 0.0078 | 0.0305 ± 0.037 | 0.04 ± 0.055 | 0.051 ± 0.011 | -0.0415 ± 0.012 | -0.03 ± 0.0042 | 0.066 ± 0.02 | -0.001 ± 0.031 | 0.0325 ± 0.044 | -0.053 ± 0.031
11 | MyoF:CXCL8/IL-8 | -0.008 ± 0.02 | 0.01 ± 0.0071 | 0.024 ± 0.014 | 0.017 ± 0.052 | 0.021 ± 0.023 | 0.003 ± 0.013 | -0.001 ± 0.023 | -0.0055 ± 0.029 | -0.004 ± 0.085 | 0.022 ± 0.075 | 0.0195 ± 0.06 | 0.077 ± 0.079 | 0.0735 ± 0.074 | -0.0125 ± 0.059 | -0.0145 ± 0.0035 | 0.0465 ± 0.074 | 0.006 ± 0.11 | 0.0205 ± 0.088 | 0.0365 ± 0.069
12 | 3C:CD62E/E-Selectin | -0.0085 ± 0.0035 | 0.0005 ± 0.0064 | 0.0175 ± 0.026 | 0.002 ± 0.014 | -0.009 ± 0.014 | -0.0145 ± 0.0092 | 0.006 ± 0.025 | -0.01 ± 0.013 | -0.005 ± 0.0085 | 0.0105 ± 0.013 | -0.007 ± 0.023 | -0.015 ± 0.03 | 0.023 ± 0.0099 | -0.024 | -0.0235 ± 0.0092 | 0.017 ± 0.03 | 0.0085 ± 0.0035 | 0.003 | -0.003 ± 0.0085
13 | MyoF:CD106/VCAM-1 | 0.0025 ± 0.005 | 0.001 | -0.001 ± 0.0057 | -0.013 ± 0.011 | -0.015 ± 0.02 | -0.0135 ± 0.005 | -0.0125 ± 0.025 | -0.02 ± 0.013 | -0.027 ± 0.016 | 0.0035 ± 0.016 | -0.023 ± 0.017 | 0.0095 ± 0.0035 | -0.001 | -0.0065 ± 0.011 | -0.017 ± 0.0071 | 0.0135 ± 0.015 | 0.0075 ± 0.019 | -0.009 ± 0.0071 | -0.0045 ± 0.015
